In ChEMBL document CHEMBL1201862, “PubChem BioAssay data set” (2004):
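Exposure lasted 48 hours, with cells grown in 96-well plates and compounds tested at five concentrations. At the GI50, growth is halved.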 Calls of active or inactive are those of the source. Rule as the data show it: active = GI50 up to about 1.1 µM and inactive = higher.

Legend:
Assay in all cases: DTP human tumour cell line panel, 48 h
[1] = tested on: SK-MEL-2
[2] = tested on: HCT-15
[3] = tested on: HCT-116
[4] = tested on: NCI-H522
[5] = tested on: EKVX
[6] = tested on: UO-31
[7] = tested on: XF498
[8] = tested on: NCI-H23
[9] = tested on: TK-10
[10] = tested on: SF-295
[11] = tested on: HT-29
[12] = tested on: OVCAR-3
[13] = tested on: SNB-19
[14] = tested on: IGROV-1
[15] = tested on: MDA-MB-435
[16] = tested on: T47D
[17] = tested on: BT-549
[18] = tested on: NCI/ADR-RES
[19] = tested on: PC-3
[20] = tested on: Hs-578T

Structure (SMILES)	GI50 [1]	GI50 [2] [µM]	GI50 [3]	GI50 [4]	GI50 [5]	GI50 [6]	GI50 [7]	GI50 [8]	GI50 [9]	GI50 [10]	GI50 [11]	GI50 [12]	GI50 [13]	GI50 [14]	GI50 [15]	GI50 [16]	GI50 [17]	GI50 [18]	GI50 [19]	GI50 [20]
COc1ccc2ccnc(Cc3ccc(OCc4ccccc4)c(OC)c3)c2c1	20.7 µM (inactive)	15.2	16.1 µM (inactive)	22.8 µM (inactive)	17.9 µM (inactive)	6 µM (inactive)	10.4 µM (inactive)	19.8 µM (inactive)	27.9 µM (inactive)	26.4 µM (inactive)	27.8 µM (inactive)	17.1 µM (inactive)	85.9 µM (inactive)	–	–	–	–	–	–	–
COC(OC)c1cccnc1C	> 100 µM (inactive)	> 100	> 100 µM (inactive)	> 100 µM (inactive)	> 100 µM (inactive)	> 100 µM (inactive)	> 100 µM (inactive)	> 100 µM (inactive)	> 100 µM (inactive)	> 100 µM (inactive)	> 100 µM (inactive)	> 100 µM (inactive)	> 100 µM (inactive)	> 100 µM (inactive)	–	–	–	–	–	–
CCN(CC)C(=O)Cc1c(C(=O)N(CC)CC)c(=O)nc2sccn12	> 100 µM (inactive)	> 100	> 100 µM (inactive)	> 100 µM (inactive)	> 100 µM (inactive)	> 100 µM (inactive)	> 100 µM (inactive)	> 100 µM (inactive)	> 100 µM (inactive)	> 100 µM (inactive)	> 100 µM (inactive)	> 100 µM (inactive)	> 100 µM (inactive)	> 100 µM (inactive)	–	–	–	–	–	–
CON(C)C(=O)CCCO	> 100 µM (inactive)	> 100	> 100 µM (inactive)	> 100 µM (inactive)	> 100 µM (inactive)	> 100 µM (inactive)	> 100 µM (inactive)	> 100 µM (inactive)	> 100 µM (inactive)	> 100 µM (inactive)	> 100 µM (inactive)	> 100 µM (inactive)	> 100 µM (inactive)	> 100 µM (inactive)	–	–	–	–	–	–
c1ccc2c(NCCCCCCNc3cccc4ccccc34)cccc2c1	> 100 µM (inactive)	> 100	> 100 µM (inactive)	> 100 µM (inactive)	> 100 µM (inactive)	98.2 µM (inactive)	> 100 µM (inactive)	75.3 µM (inactive)	> 100 µM (inactive)	> 100 µM (inactive)	> 100 µM (inactive)	> 100 µM (inactive)	> 100 µM (inactive)	> 100 µM (inactive)	–	–	–	–	–	–
O=[N+]([O-])c1cccc(C(O)/C(=N/O)c2nc3ccc(Cl)cc3nc2O)c1 (configuration not stated)	–	–	> 100 µM (inactive)	> 100 µM (inactive)	> 100 µM (inactive)	> 100 µM (inactive)	> 100 µM (inactive)	> 100 µM (inactive)	> 100 µM (inactive)	> 100 µM (inactive)	> 100 µM (inactive)	> 100 µM (inactive)	> 100 µM (inactive)	> 100 µM (inactive)	–	–	–	–	–	–
Cn1c2c(c3ccccc31)CCN(CCN1CCN(c3cccc(Cl)c3)CC1)C2=O	–	25.8	40.5 µM (inactive)	47.5 µM (inactive)	> 100 µM (inactive)	30.3 µM (inactive)	3.38 µM (inactive)	35.8 µM (inactive)	> 100 µM (inactive)	–	18.2 µM (inactive)	–	–	> 100 µM (inactive)	–	–	–	–	–	–
O=C(Nc1ccccc1-c1nc2ccccc2[nH]c1=O)c1ccccc1	23.5 µM (inactive)	35.2	20.1 µM (inactive)	14.8 µM (inactive)	25.3 µM (inactive)	19.6 µM (inactive)	24.6 µM (inactive)	33.7 µM (inactive)	17.1 µM (inactive)	20.9 µM (inactive)	37.3 µM (inactive)	20.3 µM (inactive)	24.2 µM (inactive)	26.4 µM (inactive)	–	–	–	–	–	–
C=CCC1C(=O)CC2(C)C(CC=C)C(=O)CC12C (configuration not stated)	> 100 µM (inactive)	> 100	> 100 µM (inactive)	> 100 µM (inactive)	> 100 µM (inactive)	> 100 µM (inactive)	> 100 µM (inactive)	> 100 µM (inactive)	> 100 µM (inactive)	> 100 µM (inactive)	> 100 µM (inactive)	> 100 µM (inactive)	> 100 µM (inactive)	> 100 µM (inactive)	–	–	–	–	–	–
COC(=O)/C(=N\O)C(C(=O)C=C(C)C)C(=O)C(=O)Nc1ccccc1C (configuration not stated)	> 100 µM (inactive)	> 100	> 100 µM (inactive)	> 100 µM (inactive)	> 100 µM (inactive)	> 100 µM (inactive)	> 100 µM (inactive)	> 100 µM (inactive)	> 100 µM (inactive)	> 100 µM (inactive)	> 100 µM (inactive)	> 100 µM (inactive)	> 100 µM (inactive)	> 100 µM (inactive)	–	–	–	–	–	–
CS(=O)(=O)OCCN1CCN(C(=O)c2ccc(Cl)c3c(Nc4ccc(S(=O)(=O)N=C(N)N)cc4)c4ccccc4nc23)CC1	> 100 µM (inactive)	> 100	> 100 µM (inactive)	–	–	> 100 µM (inactive)	> 100 µM (inactive)	> 100 µM (inactive)	> 100 µM (inactive)	> 100 µM (inactive)	> 100 µM (inactive)	> 100 µM (inactive)	> 100 µM (inactive)	> 100 µM (inactive)	–	–	–	–	–	–
CCN(CC)Cc1cc(Nc2ccnc3ccc4nn(C)nc4c23)ccc1O	–	16.7	4.79 µM (inactive)	9.29 µM (inactive)	–	11.9 µM (inactive)	11.8 µM (inactive)	15.3 µM (inactive)	22.4 µM (inactive)	13.6 µM (inactive)	4.7 µM (inactive)	12.3 µM (inactive)	28 µM (inactive)	25.2 µM (inactive)	–	–	–	–	–	–
Cc1c(O)c(=O)ccn1C1OC(CO)C(O)C1O (configuration not stated)	> 100 µM (inactive)	68.1	62.1 µM (inactive)	> 100 µM (inactive)	> 100 µM (inactive)	> 100 µM (inactive)	46.2 µM (inactive)	–	68.9 µM (inactive)	> 100 µM (inactive)	> 100 µM (inactive)	> 100 µM (inactive)	> 100 µM (inactive)	–	–	–	–	–	–	–
Cc1cc2c(ccc3c(C)cc(=O)oc32)o1	> 100 µM (inactive)	> 100	> 100 µM (inactive)	> 83.6 µM (inactive)	> 100 µM (inactive)	98.9 µM (inactive)	40.6 µM (inactive)	> 100 µM (inactive)	> 100 µM (inactive)	> 100 µM (inactive)	> 100 µM (inactive)	> 100 µM (inactive)	> 100 µM (inactive)	> 100 µM (inactive)	–	–	–	–	–	–
C/C1=C\[C@H](C)C[C@H](C)OC(=O)C[C@H](c2ccc(O)cc2)NC(=O)[C@@H](Cc2c(Br)[nH]c3ccccc23)N(C)C(=O)[C@H](C)NC(=O)[C@@H](C)C1 [JASPAMIDE]	–	0.834	0.196 µM (active)	0.203 µM (active)	0.275 µM (active)	0.192 µM (active)	0.226 µM (active)	0.467 µM (active)	0.294 µM (active)	0.259 µM (active)	0.173 µM (active)	0.139 µM (active)	0.213 µM (active)	0.114 µM (active)	0.063 µM (active)	0.0512 µM (active)	0.0292 µM (active)	0.367 µM (active)	0.0667 µM (active)	0.0611 µM (active)
